Experimental findings from US6545000B1, “[1,2,4]triazolo[1,5-c]pyrimidine derivatives” (Kyowa Hakko Kogyo Co., Ltd., priority 1998, dated 2003) are described below.

The target in one series is T1, Rat A2A receptor (Rattus norvegicus, UniProt P30543).
T1 construct: from tissue; host or cells: rat corpus striatum membrane preparation
The series can be described thus: Adenosine A2A receptor binding test (3H-CGS 21680 binding). As to conditions: rat corpus striatum. The method, then:
The final precipitate was suspended in 50 mmol/L Tris-HCl buffer (containing 10 mmol/L magnesium chloride and 0.02 unit/mg tissue of adenosine deaminase (manufactured by Sigma Co.)) by adding the buffer to the final precipitate so as to give a tissue concentration of 5 mg (wet weight)/mL.
Inhibition ratio (%)={1−(amount of the binding in the presence of the test compound−amount of the non-specific binding)/(amount of the total binding−amount of the non-specific binding)}×100

The subject of series [1] is CGS 21680-induced catalepsy. The series can be described thus: Activity on CGS 21680-induced catalepsy. It is filed as in vivo, mouse. As to conditions: 10 mg/kg oral; for inhibition in vivo at 10 mg/kg: Mus musculus, 1 h, percentage reduction of total score vs control group, read-out: Remission ratio (%); for Total score: total catalepsy score of 10 mice (maximum 50 points), 1 hour after administration. The method, then: This test was carried out using 10 animals per group of male ddY mice of 5 week age (22 to 25 g in body weight, Japan SLC). […] One hour after the administration of the test compound, only forelimbs or only hindlimbs of each animal were laid on a vertically arranged stand made of acryl, having a size of 4.5 cm in height and 1.0 cm in width, to measure catalepsy symptoms. All of the test compounds were administered orally in a dose of 10 mg/kg.
The effect was judged by total catalepsy scores of 10 animals in one group (the maximum score is 50 points). When total score was 40 points or less, the activity of the compounds was judged positive. The number of animals showing remission of catalepsy was expressed by the number of cases in which the catalepsy score was 4 points or less in 10 cases. The catalepsy remission ratio was expressed as the percentage reduction of the total score in the test compound-administered group to the total score in the control group.

Series [2] concerns haloperidol-induced catalepsy. The series can be described thus: Activity on haloperidol-induced catalepsy. Type of series: in vivo, mouse. The note with it: 10 mg/kg oral; for Number of animals showing remission: catalepsy score 4 points or less, out of 10 mice; for Remission ratio (%): percentage reduction of total score vs control group; for Total score: total catalepsy score of 10 mice (maximum 50 points), haloperidol 1.0 mg/kg i.p. The method, then: Parkinson's disease is a disease based on the degeneration and cell death of the nigrostriatal dopaminergic neuron. When haloperidol (dopamine D2 antagonist) is administered, catalepsy is induced by the block of postsynaptic D2 receptor. This haloperidol-induced catalepsy is known as a classic model in which symptoms of Parkinson's disease are produced by drug administration (European Journal of Pharmacology, 182: 327 (1990) and U.S. Pat. No. 3,991,207).
This test was carried out using 10 animals per group of male ddY mice of 5 week age (22 to 24 g in body weight, Japan SLC). Haloperidol (manufactured by Janssen) was suspended in 0.5% MC and administered intraperitoneally into mice at a dose of 1.0 mg/kg. Each test compound was suspended in distilled water for injection containing 0.5% MC (manufactured by Otsuka Pharmaceutical Co., Ltd.) (10 mg/kg). Also, as a control drug, 100 mg/kg of L-DOPA and 25 mg/kg of benserazide were used as a solution by dissolving them into distilled water for injection containing 0.5% MC (manufactured by Otsuka Pharmaceutical Co., Ltd.) One hour after the intraperitoneal injection of haloperidol, the suspension containing each of the test compounds or the solution containing the control drug was orally administered (0.1 mL per 10 g mouse body weight) and, one hour after the administration of the test compound or the control drug, only forelimbs or only hindlimbs of each animal were laid on a stand having a size of 4.5 cm in height and 1.0 cm in width, to measure catalepsy symptoms. The catalepsy score was evaluated by the judging criteria shown in the above-described Table 3.
The effect was judged by total catalepsy scores of 10 animals in one group (the maximum score is 50 points). When the total score was 40 points or less, the activity of the test compounds was judged positive. The number of animals showing remission of catalepsy was expressed by the number of cases in which the catalepsy score was 4 points or less in 10 cases. The catalepsy remission ratio was expressed as the percentage reduction of the total score in the test compound-administered group to the total score in the control group.

In series [3] the test system is reserpine-induced catalepsy. The series can be described thus: Activity on reserpine-induced catalepsy. It is filed as in vivo, mouse. The note with it: oral; for Remission ratio (%): percentage reduction of total score vs control group; for Total score: total catalepsy score of 10 mice (maximum 50 points), reserpine 5 mg/kg s.c., 1 hour after administration. How it is done:
This test was carried out using 10 animals per group of male ddY mice of 5 week age (22 to 24 g in body weight, Japan SLC). […] Reserpine (5 mg/kg: apoplon, Daiichi Pharmaceutical Co., Ltd.; diluted with distilled water) was subcutaneously administered, and catalepsy-inducing activity was observed from 18 hours after the administration. […] Each test compound was suspended in distilled water for injection containing 0.5% MC (manufactured by Otsuka Pharmaceutical Co., Ltd.) The suspension containing each of the test compounds or a solution containing no test compound (distilled water for injection containing 0.5% MC (manufactured by Otsuka Pharmaceutical Co., Ltd.); control) was orally administered (0.1 mL per 10 g mouse body weight) and, one hour after the administration of test compound, only forelimbs or only hindlimbs of each animal were laid on a stand having a size of 4.5 cm in height and 1.0 cm in width, to measure catalepsy symptoms.
The effect was judged by total catalepsy scores of 10 animals in one group (the maximum is 50 points). When the total score was 40 points or less, the activity of the test compound was judged positive. The number of animals showing remission of catalepsy was expressed by the number of cases in which the catalepsy score was 4 points or less in 10 cases. The catalepsy remission ratio was expressed as the percentage reduction of the total score in the test compound-administered group to the total score in the control group.

Another series has as its system ddY male mice. The series can be described thus: Forced swimming method (measurement of immobility time). Type of series: in vivo, mouse. As to conditions: oral, one hour before the test; 4 minutes (240 seconds) measurement; 10 mice. How it is done:
Ten animals per group of ddY male mice (21 to 26 g in body weight, Japan SLC) were used as the test animal. During the preliminary feeding period, they were allowed to have feed and water freely in an animal room of a room temperature of 23±1° C. and a humidity of 55±5%. Animals showing abnormal reactions in terms of spontaneous activity, myotonia, eyesight or the like were excluded beforehand. The test compound was suspended in a 0.3% Tween 80 solution and orally administered one hour before the test. In the negative control group, 10 mL/kg of a 0.3% Tween 80 solution alone was orally administered. Measurement of immobility time was carried out in accordance with the method of Porsolt (Arch. int Pharmacodyn., 229: 327-336 (1977)). That is, a cylindrical transparent acrylic water tank (10 cm in diameter and 25 cm in height) was filled with 9 cm in depth of water having a temperature of 23±1° C., and mice were forced to swim for 6 minutes. When mice are put into water, they immediately start to swim trying to escape from the tank, but the motion gradually decreases 1 to 2 minutes thereafter. […] In order to reduce effects of daily rhythm, the test was carried out by using 5 of the 10 animals per group in the morning, and the remaining 5 animals in the afternoon. […]

For series [4], the system named is MPTP-treated common marmoset. The series can be described thus: Parkinson's disease model (common marmoset treated with MPTP). Type of series: in vivo. As to conditions: motor disability score (0-17 points), 4 animals.
Description: This test was carried out using 4 animals per group of female and male common marmosets of 2 to 3 year age (300 to 375 g in body weight, CLEA Japan). MPTP (manufactured by RBI) was dissolved in physiological saline for injection (manufactured by Otsuka Pharmaceutical Co., Ltd.) and administered to common marmoset once a day for 5 days by subcutaneous injection in a dose of 2.0 mg/kg. Six weeks or more after the administration, animals showing chronic symptoms of Parkinson's disease were used in the test. Each test compound was used by suspending it in 0.3% Tween 80 and 10% sucrose solution. One hour before the administration of the test compound, the animals to be tested were put into an observation cage (equipped with a spontaneous locomotor count measuring apparatus) to adapt them to the environment. Pre-motor disability before administration of the test compound was scored, and was compared with the motor disability score after administration of the test compound. Symptoms of Parkinson's disease were observed from a one way see through window at 30 minutes' interval for 8 hours to score their motor disability. The spontaneous locomotor count was measured at 30 minutes' interval for 12 hours by a computer-controlled automatic measuring apparatus. […]

Molecules are shown by their SMILES.

T1 sequence (P30543 whole entry): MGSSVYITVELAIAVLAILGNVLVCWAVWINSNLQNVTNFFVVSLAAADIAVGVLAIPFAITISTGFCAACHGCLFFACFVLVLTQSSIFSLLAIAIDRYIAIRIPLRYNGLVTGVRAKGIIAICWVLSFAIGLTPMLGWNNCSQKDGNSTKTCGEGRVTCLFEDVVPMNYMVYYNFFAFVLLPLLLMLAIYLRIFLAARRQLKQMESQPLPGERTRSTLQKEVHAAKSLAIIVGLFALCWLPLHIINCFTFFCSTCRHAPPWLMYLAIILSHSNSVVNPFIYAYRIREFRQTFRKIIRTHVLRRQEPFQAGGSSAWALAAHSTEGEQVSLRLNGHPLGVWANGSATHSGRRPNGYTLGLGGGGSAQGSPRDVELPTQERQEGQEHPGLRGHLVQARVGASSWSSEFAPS

Take `Cc1cc(CN2CCN(c3cc4nc(-c5ccco5)nn4c(N)n3)CC2)no1` [Compound 21, 5-Amino-2-(2-furyl)-7-(4-(5-methylisoxazol-3-ylmethyl)piperazinyl)[1,2,4]triazolo[1,5-c]pyrimidine]: the “Rat A2A receptor inhibition ratio (%)” value on Rat A2A receptor (10^−6 mol/L test compound) is given as 90%. Besides, at Rat A2A receptor (10^−7 mol/L test compound), the “Rat A2A receptor inhibition ratio (%)” value stood at 65%. Moreover, in series [1], the inhibition in vivo at 10 mg/kg turned out to be 100% and the Total score was 0. In series [2], the “Number of animals showing remission” value was found to be 10, the “Remission ratio (%)” value was determined as 100% and the Total score came out at 0. Besides, in series [3], the “Remission ratio (%)” value came out at 66% and the Total score was 17. Also, the “Immobility time (second)” value with ddY male mice is recorded as 7.6 ± 3.2 (p < 0.01) second.

The melting point is the temperature of the solid-liquid transition. Compound `Nc1nc(N2CCN(Cc3nc4ccccc4[nH]3)CC2)cc2nc(-c3ccco3)nn12` [Compound 18, 5-Amino-7-(4-(benzimidazol-2-ylmethyl)piperazinyl)-2-(2-furyl)[1,2,4]triazolo[1,5-c]pyrimidine] showed a melting point of 284 to 286 °C. In addition, the “Rat A2A receptor inhibition ratio (%)” value at Rat A2A receptor (10^−6 mol/L test compound) is 96%.

For `Nc1nc(N2CCN(Cc3cn4ccncc4n3)CC2)cc2nc(-c3ccco3)nn12` [Compound 16, 5-Amino-2-(2-furyl)-7-(4-(imidazo[1,2-a]pyrazin-2-ylmethyl)piperazinyl)[1,2,4]triazolo[1,5-c]pyrimidine], the melting point was in the range of 242 to 244 °C. In addition, the “Rat A2A receptor inhibition ratio (%)” value on Rat A2A receptor (10^−6 mol/L test compound) came out at 88%.

As to `CC(C)(O)CN1CCN(c2cc3nc(-c4ccco4)nn3c(N)n2)CC1` [Compound 1, 5-Amino-2-(2-furyl)-7-(4-(2-hydroxy-2-methylpropyl)piperazinyl)[1,2,4]triazolo[1,5-c]pyrimidine], the entries for the “Rat A2A receptor inhibition ratio (%)” value at Rat A2A receptor (10^−6 mol/L test compound) and at Rat A2A receptor (10^−7 mol/L test compound) were 81% and 42%, respectively. The inhibition in vivo at 10 mg/kg in series [1] is 100%. The Total score in series [1] is given as 0; in series [2] it was 0; in series [3] it was 14. Further, the “Number of animals showing remission” value in series [2] turned out to be 10. Further, the “Remission ratio (%)” value in series [2] stood at 100%; in series [3], 72%. Besides, the “Average score at maximum improvement after administration” value in series [4] (after administration) was 4.75 ± 0.48 (p < 0.0256). The “Average score before administration” value in series [4] (before administration of the test compound) is recorded as 12.75 ± 0.25.
